Where a name gives a salt, the structure may show the parent alone.
Tested on: A431 cells (human epidermoid carcinoma)
Experiment: In vitro tumor cell proliferation assay (Cell Titer-Glo luminescent cell viability), A431
Format: cell-based
Conditions: A-431, 72 h, 72 hours of drug exposure, ATP luminescence readout, read-out: IC50, anti-proliferative activity (inhibition of cell proliferation)
Text: (§1) In vitro Tumor Cell Proliferation Assay
(§2) The tumor cell proliferation assay used to test the compounds of the present invention involves a readout called Cell Titer-Glow® Luminescent Cell Viability Assay developed by Promega® (Cunningham, B A “A Growing Issue: Cell Proliferation Assays, Modern kits ease quantification of cell growth” The Scientist 2001, 15(13), 26, and Crouch, S P et al., “The use of ATP bioluminescence as a measure of cell proliferation and cytotoxicity” Journal of Immunological Methods 1993, 160, 81-88), that measures inhibition of cell proliferation. Generation of a luminescent signal corresponds to the amount of ATP present, which is directly proportional to the number of metabolically active (proliferating) cells.
(§3) A431cells (human epidermoid carcinoma, ATCC […]) and BT474 (human breast carcinoma, ATCC […]) were plated at a density of 2.5×10^3 cells/well in 96 well black-clear bottom tissue culture plates in RPMI media with 10% Fetal Bovine Serum and incubated at 37° C. Twenty-four hours later, test compounds are added at a final concentration range from as high […] to as low 64 pM depend on the activities of the tested compounds in serial dilutions at a final DMSO concentration of 0.1%. Cells were incubated for 72 hours at 37° C. in complete growth media after addition of the test compound. After 72 hours of drug exposure, the plates were equilibrated to room temperature for approximately 30 min. Then, using a Promega Cell Titer Glo Luminescent® assay kit, lysis buffer containing 100 microliters of the enzyme luciferase and its substrate, luciferin mixture, was added to each well. The plates were mixed for 2 min on orbital shaker to ensure cell lysis and incubated for 10 min at room temperature to stabilize luminescence signal. The samples were read on VICTOR 2 using Luminescence protocol, and analyzed with Analyze5 software to generate IC50 values.

Row | IC50 [µM] | Structure (SMILES)
1 | ≤ 5 | Fc1ccc(Nc2ncnc3sc4c(c23)CCc2nn(CCN3CCNCC3)cc2-4)cc1Cl [Example 20, N-(3-chloro-4-fluorophenyl)-2-(2-piperazin-1-ylethyl)-4,5-dihydro-2H-pyrimido[5′,4′:4,5]thieno[2,3-e]indazol-6-amine]
2 | ≤ 5 | OC[C@@H](O)Cn1cc2c(n1)CCc1c-2sc2ncnc(Nc3ccc(F)c(Cl)c3)c12 [Example 43, (S)-3-[6-(3-Chloro-4-fluoro-phenylamino)-4,5-dihydro-10-thia-2,3,7,9-tetraaza-cyclopenta[a]fluoren-2-yl}-propane-1,2-diol]
3 | ≤ 5 | CN1CCN(CCn2cc3c(n2)CCc2c-3sc3ncnc(Nc4cccc(Cl)c4)c23)CC1 [Example 47, N-(3-chlorophenyl)-2-[2-(4-methylpiperazin-1-yl)ethyl]-4,5-dihydro-2H-pyrimido[5′,4′:4,5]thieno[2,3-e]indazol-6-amine]
4 | ≤ 50 | Fc1cccc(COc2ccc(Nc3ncnc4sc5c(c34)CCc3c-5cnn3CCBr)cc2Cl)c1 [Example 81, 3-(2-bromoethyl)-N-{3-chloro-4-[(3-fluorobenzyl)oxy]phenyl}-4,5-dihydro-3H-pyrimido[5′,4′:4,5]thieno[2,3-e]indazol-6-amine]
5 | ≤ 50 | CN1CCN(CCn2cc3c(n2)CCc2c-3sc3ncnc(Nc4ccc(OCc5cscn5)c(Cl)c4)c23)CC1 [Example 347, N-[3-chloro-4-(1,3-thiazol-4-ylmethoxy)phenyl]-2-[2-(4-methylpiperazin-1-yl)ethyl]-4,5-dihydro-2H-pyrimido[5′,4′:4,5]thieno[2,3-e]indazol-6-amine bis(trifluoroacetate)]
6 | ≤ 50 | CN1CCN(CCn2cc3c(n2)CCc2c-3sc3ncnc(Nc4ccc(Cc5cccnc5)cc4)c23)CC1 [Example 348, 2-[2-(4-methylpiperazin-1-yl)ethyl]-N-[4-(pyridin-3-ylmethyl)phenyl]-4,5-dihydro-2H-pyrimido[5′,4′:4,5]thieno[2,3-e]indazol-6-amine]
7 | ≤ 5 | OC[C@H](O)Cn1cc2c(n1)CCc1c-2sc2ncnc(Nc3ccc(OCc4ccccn4)c(Cl)c3)c12 [Example 350, 3-(6-{[3-chloro-4-(pyridin-2-ylmethoxy)phenyl]amino}-4,5-dihydro-2H-pyrimido[5′,4′:4,5]thieno[2,3-e]indazol-2-yl)propane-1,2-diol]
8 | ≤ 5 | OC[C@@H](O)Cn1cc2c(n1)CCc1c-2sc2ncnc(Nc3ccc(OCc4ccccn4)c(Cl)c3)c12 [Example 351, (2S)-3-(6-{[3-chloro-4-(pyridin-2-ylmethoxy)phenyl]amino}-4,5-dihydro-2H-pyrimido[5′,4′:4,5]thieno[2,3-e]indazol-2-yl)propane-1,2-diol]
9 | ≤ 50 | Cc1cccc(COc2ccc(Nc3ncnc4sc5c(c34)CCc3nn(C[C@@H](O)CO)cc3-5)cc2Cl)n1 [Example 352, (2R)-3-[6-({3-chloro-4-[(6-methylpyridin-2-yl)methoxy]phenyl}amino)-4,5-dihydro-2H-pyrimido[5′,4′:4,5]thieno[2,3-e]indazol-2-yl]propane-1,2-diol]
10 | ≤ 5 | OC[C@H](O)Cn1cc2c(n1)CCc1c-2sc2ncnc(Nc3ccc4c(cnn4Cc4ccccc4)c3)c12 [Example 353, (2R)-3-{6-[(1-benzyl-1H-indazol-5-yl)amino]-4,5-dihydro-2H-pyrimido[5′,4′:4,5]thieno[2,3-e]indazol-2-yl}propane-1,2-diol]
11 | ≤ 5 | OC[C@H](O)Cn1cc2c(n1)CCc1c-2sc2ncnc(Nc3ccc4c(cnn4Cc4cccc(F)c4)c3)c12 [Example 354, (2R)-3-(6-{[1-(3-fluorobenzyl)-1H-indazol-5-yl]amino}-4,5-dihydro-2H-pyrimido[5′,4′:4,5]thieno[2,3-e]indazol-2-yl)propane-1,2-diol]
12 | ≤ 5 | OC[C@H](O)Cn1cc2c(n1)CCc1c-2sc2ncnc(Nc3ccc(OCc4ccccc4)c(Cl)c3)c12 [Example 355, (2R)-3-(6-{[4-(benzyloxy)-3-chlorophenyl]amino}-4,5-dihydro-2H-pyrimido[5′,4′:4,5]thieno[2,3-e]indazol-2-yl)propane-1,2-diol]
13 | ≤ 5 | OC[C@@H](O)Cn1cc2c(n1)CCc1c-2sc2ncnc(Nc3ccc4c(cnn4Cc4cccc(F)c4)c3)c12 [Example 356, (2S)-3-(6-{[1-(3-fluorobenzyl)-1H-indazol-5-yl]amino}-4,5-dihydro-2H-pyrimido[5′,4′:4,5]thieno[2,3-e]indazol-2-yl)propane-1,2-diol]
14 | ≤ 5 | OC[C@@H](O)Cn1cc2c(n1)CCc1c-2sc2ncnc(Nc3ccc(OCc4ccccc4)c(Cl)c3)c12 [Example 357, (2S)-3-(6-{[4-(benzyloxy)-3-chlorophenyl]amino}-4,5-dihydro-2H-pyrimido[5′,4′:4,5]thieno[2,3-e]indazol-2-yl)propane-1,2-diol]
15 | ≤ 5 | OC[C@@H](O)Cn1cc2c(n1)CCc1c-2sc2ncnc(Nc3ccc4c(cnn4Cc4ccccc4)c3)c12 [Example 358, (2S)-3-{6-[(1-benzyl-1H-indazol-5-yl)amino]-4,5-dihydro-2H-pyrimido[5′,4′:4,5]thieno[2,3-e]indazol-2-yl}propane-1,2-diol]
16 | ≤ 50 | Cc1cccc(COc2ccc(Nc3ncnc4sc5c(c34)CCc3nn(C[C@H](O)CO)cc3-5)cc2Cl)n1 [Example 359, (2S)-3-[6-({3-chloro-4-[(6-methylpyridin-2-yl)methoxy]phenyl}amino)-4,5-dihydro-2H-pyrimido[5′,4′:4,5]thieno[2,3-e]indazol-2-yl]propane-1,2-diol]
17 | ≤ 5 | OCC(CO)n1cc2c(n1)CCc1c-2sc2ncnc(Nc3ccc(OCc4cccc(F)c4)c(Cl)c3)c12 [Example 360, 2-[6-({3-chloro-4-[(3-fluorobenzyl)oxy]phenyl}amino)-4,5-dihydro-2H-pyrimido[5′,4′:4,5]thieno[2,3-e]indazol-2-yl]propane-1,3-diol]
18 | ≤ 50 | OCC(CO)n1ncc2c1CCc1c-2sc2ncnc(Nc3ccc(OCc4cccc(F)c4)c(Cl)c3)c12 [Example 361, 2-[6-({3-chloro-4-[(3-fluorobenzyl)oxy]phenyl}amino)-4,5-dihydro-3H-pyrimido[5′,4′:4,5]thieno[2,3-e]indazol-3-yl)propane-1,3-diol]
19 | ≤ 5 | OCC(CO)n1ncc2c1CCc1c-2sc2ncnc(Nc3ccc4c(cnn4Cc4cccc(F)c4)c3)c12 [Example 362, 2-(6-{[1-(3-fluorobenzyl)-1H-indazol-5-yl]-amino}-4,5-dihydro-3H-pyrimido[5′,4′:4,5]thieno[2,3-e]indazol-3-yl)propane-1,3-diol]
20 | ≤ 5 | OCC(CO)n1cc2c(n1)CCc1c-2sc2ncnc(Nc3ccc4c(cnn4Cc4cccc(F)c4)c3)c12 [Example 363, 2-(6-{[1-(3-fluorobenzyl)-1H-indazol-5-yl]amino}-4,5-dihydro-2H-pyrimido[5′,4′:4,5]thieno[2,3-e]indazol-2-yl)propane-1,3-diol]

Tested on: BT474 (human breast carcinoma)
Experiment: In vitro tumor cell proliferation assay (Cell Titer-Glo luminescent cell viability), BT474
Format: cell-based
Conditions: BT-474, 72 h, BT474 cells, 72 hours of drug exposure, ATP luminescence readout, read-out: IC50, anti-proliferative activity (inhibition of cell proliferation)
Text: as §1, §2, §3

Row | IC50 [µM] | Structure (SMILES)
21 | ≤ 5 | Fc1ccc(Nc2ncnc3sc4c(c23)CCc2nn(CCBr)cc2-4)cc1Cl [Example 6, 2-(2-bromoethyl)-N-(3-chloro-4-fluorophenyl)-4,5-dihydro-2H-pyrimido[5′,4′:4,5]thieno[2,3-e]indazol-6-amine]
22 | ≤ 1 | CN(C)[C@H]1CCN(C[C@@H](O)Cn2cc3c(n2)CCc2c-3sc3ncnc(Nc4ccc(OCc5cccc(F)c5)c(Cl)c4)c23)C1 [Example 153, (2R)-1-[6-({3-chloro-4-[(3-fluorobenzyl)oxy]phenyl}amino)-4,5-dihydro-2H-pyrimido[5′,4′:4,5]thieno[2,3-e]indazol-2-yl]-3-[(3S)-3-(dimethylamino)pyrrolidin-1-yl]propan-2-ol trilfluoroacetate (salt)]
23 | ≤ 1 | O=C(CCl)N1CCC(Cn2cc3c(n2)CCc2c-3sc3ncnc(Nc4ccc(OCc5cccc(F)c5)c(Cl)c4)c23)CC1 [Example 233, 2-{[1-(chloroacetyl)piperidin-4-yl]methyl}-N-{3-chloro-4-[(3-fluorobenzyl)oxy]phenyl}-4,5-dihydro-2H-pyrimido[5′,4′:4,5]thieno[2,3-e]indazol-6-amine trifluoroacetate]
24 | ≤ 5 | CC(C)(C)OC(=O)N1CCC(CCn2cc3c(n2)CCc2c-3sc3ncnc(Nc4ccc(OCc5cccc(F)c5)c(Cl)c4)c23)CC1 [Example 246, tert-butyl 4-{2-[6-({3-chloro-4-[(3-fluorobenzyl)oxy]phenyl}amino)-4,5-dihydro-2H-pyrimido[5′,4′:4,5]thieno[2,3-e]indazol-2-yl]ethyl}piperidine-1-carboxylate]
25 | ≤ 1 | Fc1cccc(COc2ccc(Nc3ncnc4sc5c(c34)CCc3nn(CCC4CCNCC4)cc3-5)cc2Cl)c1 [Example 247, N-{3-chloro-4-[(3-fluorobenzyl)oxy]phenyl}-2-(2-piperidin-4-ylethyl)-4,5-dihydro-2H-pyrimido[5′,4′:4,5]thieno[2,3-e]indazol-6-amine]

Reference: patent publication US8207172B2 (Bayer Intellectual Property GmbH, priority 2004, dated 2012)
